In patent US20260108521A1, “GSPT1 DEGRADERS, COMPOSITIONS COMPRISING THE DEGRADER, AND METHODS OF USING THE SAME” (BIOFRONT LTD, priority 2022, published 2026) one finds inhibition data, which are given here for 17 molecules.

The assay deals with T1, GSPT1 protein (Homo sapiens, UniProt P15170+Q96SW2).
T1 construct: endogenous in cells; host or cells: HL-60 cells
Nature of the assay: GSPT1 degradation assay (western blot) in HL-60 cells. To be noted: GSPT1 protein level, 2h incubation, western blot normalized to beta-Actin; for inhibition at 0.1 µM: 0.1 μM compound; for inhibition at 1 µM: 1 μM compound. It is filed as cell-based. The procedure: HL-60 cells (4×10^^6 cells/well) were seeded in 6-well culture plate (Costar, 3516) and treated with a variety of concentrations of test compound. After 2h incubation, cells were collected and lysed. The protein concentration was determined by BCA protein assay kit from Thermo (23227). The GSPT1 protein level was determined by western blots, using GSPT1 polyclonal antibody. Proteins were loaded into each well of the pre-casting gels and subjected to electrophoretic separation by SDS-PAGE. The protein resolved by SDS-PAGE were transferred to PVDF, blocked by 5% skim milk and probed with anti-GSPT1 antibody (Proteintech, 10763-1-AP) or anti-β-actin antibody (CST, 3700S), using following standard western blotting procedure. Blots intensities were quantified using ImageJ software and the intensity of GSPT1 bands were normalized to beta-Actin bands, respectively. The GSPT1 degradation results were then calculated. Reported compound C84971 (see WO2021126974A1 and WO2021126973A1) was used as a reference.
(In general: Immunoblotting shows a protein as a band on a membrane.)

Broadly, the inhibition is how much of the control response was suppressed. A lower inhibition goes with little suppression.

SMILES strings stand for the structures. A value given as a limit tells only on which side of the number the result lay.

T1 sequence (P15170 whole entry): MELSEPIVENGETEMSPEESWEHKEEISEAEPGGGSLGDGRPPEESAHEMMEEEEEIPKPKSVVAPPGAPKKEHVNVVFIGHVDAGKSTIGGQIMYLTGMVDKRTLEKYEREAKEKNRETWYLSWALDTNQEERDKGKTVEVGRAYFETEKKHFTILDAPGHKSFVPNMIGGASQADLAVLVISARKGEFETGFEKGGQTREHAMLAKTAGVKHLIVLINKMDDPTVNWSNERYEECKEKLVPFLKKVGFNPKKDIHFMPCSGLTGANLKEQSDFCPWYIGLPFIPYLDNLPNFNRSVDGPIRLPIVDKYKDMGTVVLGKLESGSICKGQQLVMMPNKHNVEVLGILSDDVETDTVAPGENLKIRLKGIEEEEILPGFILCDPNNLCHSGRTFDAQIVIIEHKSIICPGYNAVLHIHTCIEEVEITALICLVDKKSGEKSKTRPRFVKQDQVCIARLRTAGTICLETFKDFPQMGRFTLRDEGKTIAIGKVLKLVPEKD
T1 sequence (Q96SW2 whole entry): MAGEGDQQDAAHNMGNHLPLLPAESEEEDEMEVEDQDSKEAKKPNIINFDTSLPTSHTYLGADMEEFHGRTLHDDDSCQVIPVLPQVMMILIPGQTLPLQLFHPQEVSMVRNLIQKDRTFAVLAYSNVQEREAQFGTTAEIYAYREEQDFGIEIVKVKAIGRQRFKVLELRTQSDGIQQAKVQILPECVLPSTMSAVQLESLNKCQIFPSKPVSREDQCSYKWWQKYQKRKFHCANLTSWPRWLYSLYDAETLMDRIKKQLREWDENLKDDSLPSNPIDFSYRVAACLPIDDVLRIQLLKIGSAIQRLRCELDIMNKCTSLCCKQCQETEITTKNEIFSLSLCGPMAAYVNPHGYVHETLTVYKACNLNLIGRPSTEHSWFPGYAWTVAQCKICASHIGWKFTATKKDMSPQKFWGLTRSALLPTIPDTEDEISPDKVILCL
T1 sequence (Q16531 whole entry partner): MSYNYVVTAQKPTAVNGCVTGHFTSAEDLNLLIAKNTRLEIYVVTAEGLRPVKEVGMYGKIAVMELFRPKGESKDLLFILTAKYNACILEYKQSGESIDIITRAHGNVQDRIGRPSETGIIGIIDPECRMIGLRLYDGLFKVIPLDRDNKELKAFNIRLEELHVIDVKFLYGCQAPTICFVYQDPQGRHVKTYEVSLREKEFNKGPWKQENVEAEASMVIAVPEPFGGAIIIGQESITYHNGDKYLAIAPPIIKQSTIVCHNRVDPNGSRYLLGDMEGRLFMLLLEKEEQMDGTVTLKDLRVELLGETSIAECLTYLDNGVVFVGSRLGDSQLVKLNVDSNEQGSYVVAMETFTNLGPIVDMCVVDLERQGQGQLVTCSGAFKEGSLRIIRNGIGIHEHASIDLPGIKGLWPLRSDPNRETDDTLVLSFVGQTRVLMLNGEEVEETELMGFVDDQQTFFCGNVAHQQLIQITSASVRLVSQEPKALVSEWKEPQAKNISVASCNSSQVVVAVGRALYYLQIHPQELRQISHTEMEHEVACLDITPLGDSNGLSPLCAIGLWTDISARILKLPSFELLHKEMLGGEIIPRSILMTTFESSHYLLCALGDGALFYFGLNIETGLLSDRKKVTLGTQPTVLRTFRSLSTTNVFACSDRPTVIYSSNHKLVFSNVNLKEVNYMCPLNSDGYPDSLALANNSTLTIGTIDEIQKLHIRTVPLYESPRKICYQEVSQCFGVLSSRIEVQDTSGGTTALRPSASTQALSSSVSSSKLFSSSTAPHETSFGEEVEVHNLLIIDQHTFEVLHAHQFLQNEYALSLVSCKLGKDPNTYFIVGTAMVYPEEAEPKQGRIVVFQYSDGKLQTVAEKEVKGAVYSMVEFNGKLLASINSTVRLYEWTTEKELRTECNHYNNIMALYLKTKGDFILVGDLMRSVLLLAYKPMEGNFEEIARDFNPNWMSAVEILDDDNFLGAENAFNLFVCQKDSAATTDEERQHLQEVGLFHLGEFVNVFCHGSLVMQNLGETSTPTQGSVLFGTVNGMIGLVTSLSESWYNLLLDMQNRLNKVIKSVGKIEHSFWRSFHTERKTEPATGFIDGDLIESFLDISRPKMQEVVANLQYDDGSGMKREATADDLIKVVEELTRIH

`O=C1CCC(N2C(=O)c3ccc(N4CCC(CN5CCN(c6ccccc6)C5=O)CC4)cc3C2=O)C(=O)N1` (stereo not shown) [Compound 2, 2-(2,6-dioxopiperidin-3-yl)-5-(4-((2-oxo-3-phenylimidazolidin-1-yl)methyl)piperidin-1-yl)isoindoline-1,3-dione] gave an inhibition at 0.1 µM of 0% and an inhibition at 1 µM of 0%.

`O=C1CCC(N2C(=O)c3ccc(N4CCC(CN5CCCN(c6ccccn6)C5=O)CC4)cc3C2=O)C(=O)N1` (stereo not shown) [Compound 4, 2-(2,6-dioxopiperidin-3-yl)-5-(4-{[2-oxo-3-(pyridin-2-yl)-1,3-diazinan-1-yl]methyl}piperidin-1-yl)isoindole-1,3-dione] yielded an inhibition at 0.1 µM of 0% and an inhibition at 1 µM of 0%.

Take `O=C1CCC(N2C(=O)c3ccc(N4CCC(CN5CCCN(C6CCCCC6)C5=O)CC4)cc3C2=O)C(=O)N1` (stereo not shown) [Compound 5, 5-(4-((3-cyclohexyl-2-oxotetrahydropyrimidin-1(2H)-yl)methyl)piperidin-1-yl)-2-(2,6-dioxopiperidin-3-yl) isoindoline-1,3-dione]: the inhibition at 0.1 µM is 17% and testing at 1 µM gave an inhibition of 7%.

Regarding `CC(C)(C)N1CCCN(CC2CCN(c3ccc4c(c3)C(=O)N(C3CCC(=O)NC3=O)C4=O)CC2)C1=O` (stereo not shown) [Compound 7, 5-(4-((3-(tert-butyl)-2-oxotetrahydropyrimidin-1(2H)-yl)methyl)piperidin-1-yl)-2-(2,6-dioxopiperidin-3-yl)isoindoline-1,3-dione], the inhibition at 0.1 µM turned out to be 0% and 1 µM produced 10% inhibition.

`O=C1CCC(c2ccc(N3CCC(CN4CCCN(c5ccccc5)C4=O)CC3)cc2)C(=O)N1` (stereo not shown) [Compound 13, 3-(4-{4-[(2-oxo-3-phenyl-1,3-diazinan-1-yl)methyl]piperidin-1-yl}phenyl) piperidine-2,6-dione] gave an inhibition at 0.1 µM of 0% and an inhibition at 1 µM of 0%.

For `O=C1CCC(N2C(=O)c3ccc(N4CCC(CN5CCCN(c6cccc(Cl)c6)C5=O)CC4)cc3C2=O)C(=O)N1` (stereo not shown) [Compound 14, 5-(4-((3-(3-chlorophenyl)-2-oxotetrahydropyrimidin-1(2H)-yl)methyl)piperidin-1-yl)-2-(2,6-dioxopiperidin-3-yl)isoindoline-1,3-dione], the inhibition at 0.1 µM turned out to be 0% and the inhibition at 1 µM amounted to 0%.

Take `O=C1CCC(N2C(=O)c3ccc(N4CCC(CN5CCCN(Cc6ccc(F)cc6)C5=O)CC4)cc3C2=O)C(=O)N1` (stereo not shown) [Compound 16, 2-(2,6-dioxopiperidin-3-yl)-5-(4-((3-(4-fluorobenzyl)-2-oxotetrahydropyrimidin-1(2H)-yl)methyl)piperidin-1-yl)isoindoline-1,3-dione]: the inhibition at 0.1 µM was 26% and the inhibition at 1 µM came to 32%.

On to `O=C1CCC(N2C(=O)c3ccc(N4CCC(CN5CCN(Cc6ccc(F)cc6)C5=O)CC4)cc3C2=O)C(=O)N1` (stereo not shown) [Compound 17, 2-(2,6-dioxopiperidin-3-yl)-5-(4-((3-(4-fluorobenzyl)-2-oxoimidazolidin-1-yl)methyl)piperidin-1-yl)isoindoline-1,3-dione], for which testing at 0.1 µM gave an inhibition of 36% and 1 µM produced 22% inhibition.

Regarding `Cc1csc(N2CCCN(CC3CCN(c4ccc5c(c4)C(=O)N(C4CCC(=O)NC4=O)C5=O)CC3)C2=O)n1` (stereo not shown) [Compound 18, 2-(2,6-dioxopiperidin-3-yl)-5-(4-{[3-(4-methyl-1,3-thiazol-2-yl)-2-oxo-1,3-diazinan-1-yl]methyl}piperidin-1-yl)isoindole-1,3-dione], the inhibition at 0.1 µM was determined as 32% and the inhibition at 1 µM turned out to be 36%.

Turning to `O=C1CCC(c2ccc(N3CCC(CCN4CCCN(c5ccccc5)C4=O)CC3)cc2)C(=O)N1` (stereo not shown) [Compound 20, 3-(4-(4-(2-(2-oxo-3-phenyltetrahydropyrimidin-1(2H)-yl)ethyl)piperidin-1-yl)phenyl)piperidine-2,6-dione], the inhibition at 0.1 µM was determined as 0% and the inhibition at 1 µM worked out at 0%.

For the molecule `O=C1CCC(N2C(=O)c3ccc(N4CC(CCN5CCCN(c6cccc(-c7ccn8ccnc8c7)c6)C5=O)C4)cc3C2=O)C(=O)N1` (stereo not shown) [Compound 21, 2-(2,6-dioxopiperidin-3-yl)-5-(3-(2-(3-(3-(imidazo[1,2-a]pyridin-7-yl)phenyl)-2-oxotetrahydropyrimidin-1(2H)-yl)ethyl)azetidin-1-yl)isoindoline-1,3-dione], at 0.1 µM the inhibition was 35% and the inhibition at 1 µM worked out at 40%.

For the molecule `Cc1nc2ncc(-c3cccc(N4CCCN(CCC5CN(c6ccc7c(c6)C(=O)N(C6CCC(=O)NC6=O)C7=O)C5)C4=O)c3)cc2o1` (stereo not shown) [Compound 24, 2-(2,6-dioxopiperidin-3-yl)-5-(3-(2-(3-(3-(2-methyloxazolo[4,5-b]pyridin-6-yl)phenyl)-2-oxotetrahydropyrimidin-1(2H)-yl)ethyl)azetidin-1-yl)isoindoline-1,3-dione], the inhibition at 0.1 µM was 26% and 1 µM produced 29% inhibition.

For `CCNc1ccc(-c2cccc(N3CCCN(CC4CCN(c5ccc6c(c5)C(=O)N(C5CCC(=O)NC5=O)C6=O)CC4)C3=O)c2)c(Cl)c1` (stereo not shown) [Compound 30, 5-{4-[(3-{3-[2-chloro-4-(ethylamino)phenyl]phenyl}-2-oxo-1,3-diazinan-1-yl)methyl]piperidin-1-yl}-2-(2,6-dioxopiperidin-3-yl)isoindole-1,3-dione], the inhibition at 0.1 µM was 37% and testing at 1 µM gave an inhibition of 45%.

Consider `CNC(=O)c1ccc(-c2cccc(N3CCCN(CC4CCN(c5ccc6c(c5)C(=O)N(C5CCC(=O)NC5=O)C6=O)CC4)C3=O)c2)c(Cl)c1` (stereo not shown) [Compound 31, 3-chloro-4-{3-[3-({1-[2-(2,6-dioxopiperidin-3-yl)-1,3-dioxoisoindol-5-yl]piperidin-4-yl}methyl)-2-oxo-1,3-diazinan-1-yl]phenyl}-N-methylbenzamide], for which testing at 0.1 µM gave an inhibition of 45% and 1 µM produced 55% inhibition.

The molecule `CN(C)C(=O)c1ccc(-c2cccc(N3CCCN(CC4CCN(c5ccc6c(c5)C(=O)N(C5CCC(=O)NC5=O)C6=O)CC4)C3=O)c2)c(Cl)c1` (stereo not shown) [Compound 32, 3-chloro-4-{3-[3-({1-[2-(2,6-dioxopiperidin-3-yl)-1,3-dioxoisoindol-5-yl]piperidin-4-yl}methyl)-2-oxo-1,3-diazinan-1-yl]phenyl}-N,N-dimethylbenzamide] displayed an inhibition at 0.1 µM of less than 10% and an inhibition at 1 µM of less than 10%.

For `CS(=O)(=O)c1ccc(-c2cccc(N3CCCN(CC4CCN(c5ccc6c(c5)C(=O)N(C5CCC(=O)NC5=O)C6=O)CC4)C3=O)c2)c(Cl)c1` (stereo not shown) [Compound 33, 5-[4-({3-[3-(2-chloro-4-methanesulfonylphenyl)phenyl]-2-oxo-1,3-diazinan-1-yl}methyl)piperidin-1-yl]-2-(2,6-dioxopiperidin-3-yl)isoindole-1,3-dione], the inhibition at 0.1 µM is less than 10% and at 1 µM the inhibition was 15%.

`CCn1ncc2ccc(-c3cccc(N4CCCN(CC5CCN(c6ccc7c(c6)C(=O)N(C6CCC(=O)NC6=O)C7=O)CC5)C4=O)c3)c(Cl)c21` (stereo not shown) [Compound 34, 5-(4-((3-(3-(7-chloro-1-ethyl-1H-indazol-6-yl)phenyl)-2-oxotetrahydropyrimidin-1(2H)-yl)methyl)piperidin-1-yl)-2-(2,6-dioxopiperidin-3-yl)isoindoline-1,3-dione]: the inhibition at 0.1 µM was determined as 58% and the inhibition at 1 µM amounted to 53%.
